{"source": "patent EP0068239A2", "about": "“Sulfamoylbenzoic acid derivatives and pharmaceutical compositions comprising same” (MITSUI TOATSU CHEMICALS, Inc., priority 1981, dated 1983)", "key": {"[1]": {"system": "rats with DOCA/saline-induced hypertension", "assay": "Hypotensive activity in rats with DOCA/saline-induced hypertension (systolic pressure measured indirectly through the caudal artery)", "assay_type": "in vivo, male Wistar rats", "conditions": "30 mg/kg orally once a day for 5 days, versus initial value; for Percent change of systolic pressure Day 1: measured 4 hour after administration on day 1; for Percent change of systolic pressure Day 3: measured 4 hour after administration on day 3; for Percent change of systolic pressure Day 5: measured 4 hour after administration on day 5", "method": "Evaluation Test 1 (Hypotensive activity in rats with DOCA/saline-induced hypertension]\nRats with DOCA/saline-induced hypertension were prepared according to the method described in an article by H. Selye, C.E. Hall and E.M. Rowly tCanadian Medical Association Journal, Vol. 49, p. 88, 1943). More specifically, 5-weeks-old male Wistar rats, weighing 100 to 120 g, were placed under anesthesia with ether and their left kidney was excised. Thereafter, they were allowed to take saline (a 1% aqueous solution of sodium chloride) instead of water. In addition, 10 mg/kg of deoxycorticosterone acetate was subcutaneously administered once a week. After 4-6 weeks, these rats developed hypertension.\nBlood pressure was measured according to the method described in an article by M. Gerold and H. Tschirky (Arzneimittelforschung, Vol. 18, p. 1285, 1968). More specifically, using a Model 8002 or 8005 BP Recorder (W+W Electronic Co.), the systolic pressure of each rat was indirectly measured through the caudal artery. The rats were placed in a high-temperature environment (45±2°C) prior to every measurement. Among the rats (aged 15-17 weeks) with DOCA/saline-induced hypertension, only those showing a systolic pressure of 170 mmHg or above were used in groups of 3 or 4.\nA compound to be tested was suspended in a 0.2% solution of carboxymethyl cellulose and administered orally to the rats in a dose of 30 mg/kg. This administration was performed once a day and continued for 5 days. Blood pressure measurements were made before the administration of the compound and 4 hour after the administration on days 1, 3, and 5."}, "anesthetized dogs": {"system": "anesthetized dogs", "assay": "Diuretic effect in anesthetized dogs (urine collection via ureter cannulae)", "assay_type": "in vivo, Adult mongrel dogs", "conditions": "for ED100: 10 min, dose at which urine collected for 10 minutes after administration is twice the amount collected for 10 minutes before; for diuretic effect: high dose of 2 mg/kg", "method": "Evaluation Test 2 [Diuretic effect in anesthetized dogs3\nAdult mongrel dogs of either sex were used in this experiment. Each dog was anesthetized by intravenous administration of 30 mg/kg of pentobarbital sodium. Thereafter, a midline incision was made in the lower abdominal region and polyethylene cannulae for the collection of urine were inserted into the right and left ureters. In addition, a polyethylene cannula was inserted into the left femoral vein, through which 50 ml of physiological saline was administered. Thirty minutes after that, physiological saline was continuously infused at a rate of 1.5 ml/min. The experiment was started after the rate of urine excretion became constant. A compound to be tested was dissolved in dimethylformamide and administered intravenously by way of the right femoral vein, and blood pressure was surgically monitored by way of the right femoral artery.\nThe ED100 of the compound was defined as the dose at which the amount of urine collected for 10 minutes after the administration of the compound was equal to twice the amount of urine collected for 10 minutes before the administration."}, "[2]": {"conditions": "Canis lupus familiaris, intravenous"}}, "data": [{"smiles": "CC1Cc2ccccc2N1NC(=O)c1cc(S(N)(=O)=O)c(Cl)cc1Cl", "note": "(stereo not shown) [Example 1, N-(2,4-dichloro-5-sulfamoylbenzamido)-2-methylindoline]", "values": [{"measurement": "Percent change of systolic pressure Day 1", "setting": "[1]", "result": -12, "unit": "%"}, {"measurement": "Percent change of systolic pressure Day 3", "setting": "[1]", "result": -25, "unit": "%"}, {"measurement": "Percent change of systolic pressure Day 5", "setting": "[1]", "result": -28, "unit": "%"}, {"measurement": "ED100", "setting": "anesthetized dogs; [2]", "result": "> 2", "unit": "mg/kg"}, {"measurement": "diuretic effect", "setting": "anesthetized dogs; intravenous", "result": "little diuretic effect"}]}, {"smiles": "CC1Cc2ccccc2N1NC(=O)c1cc(S(N)(=O)=O)c(Cl)cc1Br", "note": "(stereo not shown) [Example 2, N-(2-bromo-4-chloro-5-sulfamoylbenzamido)-2-methylindoline]", "values": [{"measurement": "Percent change of systolic pressure Day 1", "setting": "[1]", "result": -12, "unit": "%"}, {"measurement": "Percent change of systolic pressure Day 3", "setting": "[1]", "result": -24, "unit": "%"}, {"measurement": "Percent change of systolic pressure Day 5", "setting": "[1]", "result": -25, "unit": "%"}, {"measurement": "ED100", "setting": "anesthetized dogs; [2]", "result": "> 2", "unit": "mg/kg"}, {"measurement": "diuretic effect", "setting": "anesthetized dogs; intravenous", "result": "little diuretic effect"}]}, {"smiles": "CC1Cc2ccccc2N1NC(=O)c1ccc(Cl)c(S(N)(=O)=O)c1", "note": "(stereo not shown) [Indapamide, N-(3-sulfamoyl-4-chlorobenzamido)-2-methylindoline, reference compound]", "values": [{"measurement": "Percent change of systolic pressure Day 1", "setting": "[1]", "result": -13, "unit": "%"}, {"measurement": "Percent change of systolic pressure Day 3", "setting": "[1]", "result": -20, "unit": "%"}, {"measurement": "Percent change of systolic pressure Day 5", "setting": "[1]", "result": -22, "unit": "%"}, {"measurement": "ED100", "setting": "anesthetized dogs; [2]", "result": 0.2, "unit": "mg/kg"}, {"measurement": "minimal effective dose", "setting": "anesthetized dogs; Canis lupus familiaris, intravenous, anesthetized dogs, read-out: dose at which the compound began to exert a diuretic effect", "result": 0.05, "unit": "mg/kg"}, {"measurement": "increase of urine excretion (factor)", "setting": "anesthetized dogs; intravenous dose of 0.2 mg/kg", "result": "approximately 2"}]}]}
